US20060014673A1 (priority 1998, published 2006)
Where two headings read alike, the source gives them in different places.

Columns and labels:
[1] = tested on: Primary cultures of neonatal rat cortex; format: cell-based
[2] = tested on: Primary cultures of neonatal rat cortex; format: cell-based; remark: listed apart in the source

## dendrotoxin
[1]
  effect on intracellular calcium: caused an increase in intracellular calcium

## Nc1ccncc1 [4-AP, 4-aminopyridine]
[1]; depolarized conditions (aconitine), substance alone
  effect on intracellular calcium: induces an increase in intracellular calcium
[2]
  effect on intracellular calcium: significant effect
  potency in non-depolarized compared with depolarized cultures: slightly less potent
